Assay results: patent US20230139171A1 (SITA Information Networking Computing UK Limited, priority 2019, published 2023)

Experiments:
Format in all cases: cell-based
human TLR9 = molecular target: T1, human TLR9 (Homo sapiens, UniProt Q9NR96); assay: TLR9 inhibition reporter assay (HEK-Blue cells, SEAP reporter, ODN2006 stimulation); settings: HEK-Blue cells overexpressing human TLR9, SEAP reporter, ODN2006 5 nM
T1 construct: host or cells: HEK-Blue cells
T1 sequence (Q9NR96 26-1032): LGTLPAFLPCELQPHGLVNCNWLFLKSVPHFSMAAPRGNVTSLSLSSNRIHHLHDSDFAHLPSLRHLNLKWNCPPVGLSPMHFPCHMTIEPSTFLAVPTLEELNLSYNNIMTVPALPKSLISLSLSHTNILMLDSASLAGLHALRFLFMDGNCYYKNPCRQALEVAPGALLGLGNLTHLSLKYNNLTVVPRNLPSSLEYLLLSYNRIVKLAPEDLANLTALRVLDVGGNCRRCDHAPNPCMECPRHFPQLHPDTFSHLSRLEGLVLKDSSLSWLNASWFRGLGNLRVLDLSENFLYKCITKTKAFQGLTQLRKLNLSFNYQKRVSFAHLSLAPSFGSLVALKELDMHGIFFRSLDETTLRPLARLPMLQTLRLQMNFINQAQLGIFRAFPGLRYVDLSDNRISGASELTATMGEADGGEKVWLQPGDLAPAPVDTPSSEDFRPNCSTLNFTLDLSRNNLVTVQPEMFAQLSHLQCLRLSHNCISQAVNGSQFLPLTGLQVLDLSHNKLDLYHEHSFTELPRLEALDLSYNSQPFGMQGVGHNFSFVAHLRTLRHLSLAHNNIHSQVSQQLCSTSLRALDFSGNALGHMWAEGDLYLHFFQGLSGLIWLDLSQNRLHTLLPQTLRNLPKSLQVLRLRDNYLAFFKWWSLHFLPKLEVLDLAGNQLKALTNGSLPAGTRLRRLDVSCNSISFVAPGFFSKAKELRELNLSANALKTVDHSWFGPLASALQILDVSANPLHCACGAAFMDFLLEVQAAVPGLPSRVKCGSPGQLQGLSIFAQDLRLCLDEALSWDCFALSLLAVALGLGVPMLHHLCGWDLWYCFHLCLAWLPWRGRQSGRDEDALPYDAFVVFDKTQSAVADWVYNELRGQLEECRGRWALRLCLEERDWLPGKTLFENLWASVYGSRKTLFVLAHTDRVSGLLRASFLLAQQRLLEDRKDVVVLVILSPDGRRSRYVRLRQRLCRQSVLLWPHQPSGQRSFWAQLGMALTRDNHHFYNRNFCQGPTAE
In short: (§1)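 Compound treatment: 30 min, RT, 0.05 nM–50 μM final. Agonist: TLR7 gardiquimod 7.5 μM; TLR8 R848 15.9 μM; TLR9 ODN2006 5 nM. Incubation 22 h, 37 °C, 5% CO2. Readout SEAP, HEK-Blue Detection.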

human TLR7 = molecular target: T2, human TLR7 (Homo sapiens, UniProt Q9NYK1); assay: TLR7 inhibition reporter assay (HEK-Blue cells, SEAP reporter, gardiquimod stimulation); settings: HEK-Blue cells overexpressing human TLR7, SEAP reporter, gardiquimod 7.5 μM; read-out: TLR7 IC50
T2 construct: host or cells: HEK-Blue cells
T2 sequence (Q9NYK1 27-1049): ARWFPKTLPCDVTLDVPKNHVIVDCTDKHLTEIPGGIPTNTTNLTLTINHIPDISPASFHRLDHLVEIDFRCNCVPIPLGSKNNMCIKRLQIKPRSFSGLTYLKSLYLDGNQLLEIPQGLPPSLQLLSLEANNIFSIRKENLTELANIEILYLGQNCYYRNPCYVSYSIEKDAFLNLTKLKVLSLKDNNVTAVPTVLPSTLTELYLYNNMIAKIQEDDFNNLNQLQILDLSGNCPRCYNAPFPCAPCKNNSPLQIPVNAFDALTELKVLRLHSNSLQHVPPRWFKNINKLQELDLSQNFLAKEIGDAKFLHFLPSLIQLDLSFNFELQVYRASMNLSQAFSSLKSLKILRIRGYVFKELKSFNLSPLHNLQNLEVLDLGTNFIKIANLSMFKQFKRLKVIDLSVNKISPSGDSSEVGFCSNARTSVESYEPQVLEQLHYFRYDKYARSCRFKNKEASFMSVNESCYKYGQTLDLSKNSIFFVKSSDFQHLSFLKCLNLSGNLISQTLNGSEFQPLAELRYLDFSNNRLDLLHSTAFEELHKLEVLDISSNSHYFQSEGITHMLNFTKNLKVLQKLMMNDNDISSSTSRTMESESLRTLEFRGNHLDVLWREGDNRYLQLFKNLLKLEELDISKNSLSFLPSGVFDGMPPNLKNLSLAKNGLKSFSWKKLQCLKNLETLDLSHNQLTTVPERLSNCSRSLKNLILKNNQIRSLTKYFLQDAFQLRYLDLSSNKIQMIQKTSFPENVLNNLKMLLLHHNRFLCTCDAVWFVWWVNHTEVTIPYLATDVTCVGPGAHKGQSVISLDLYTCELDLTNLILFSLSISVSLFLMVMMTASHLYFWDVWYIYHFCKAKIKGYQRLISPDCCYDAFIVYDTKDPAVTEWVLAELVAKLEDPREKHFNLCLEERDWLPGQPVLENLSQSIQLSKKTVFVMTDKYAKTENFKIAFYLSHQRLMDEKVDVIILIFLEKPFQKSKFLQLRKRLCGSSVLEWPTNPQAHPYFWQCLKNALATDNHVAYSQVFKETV
In short: as §1

human TLR8 = molecular target: T3, human TLR8 (Homo sapiens, UniProt Q9NR97); assay: TLR8 inhibition reporter assay (HEK-Blue cells, SEAP reporter, R848 stimulation); settings: HEK-Blue cells overexpressing human TLR8, SEAP reporter, R848 15.9 μM; read-out: TLR8 IC50
T3 construct: host or cells: HEK-Blue cells
T3 sequence (Q9NR97 27-1041): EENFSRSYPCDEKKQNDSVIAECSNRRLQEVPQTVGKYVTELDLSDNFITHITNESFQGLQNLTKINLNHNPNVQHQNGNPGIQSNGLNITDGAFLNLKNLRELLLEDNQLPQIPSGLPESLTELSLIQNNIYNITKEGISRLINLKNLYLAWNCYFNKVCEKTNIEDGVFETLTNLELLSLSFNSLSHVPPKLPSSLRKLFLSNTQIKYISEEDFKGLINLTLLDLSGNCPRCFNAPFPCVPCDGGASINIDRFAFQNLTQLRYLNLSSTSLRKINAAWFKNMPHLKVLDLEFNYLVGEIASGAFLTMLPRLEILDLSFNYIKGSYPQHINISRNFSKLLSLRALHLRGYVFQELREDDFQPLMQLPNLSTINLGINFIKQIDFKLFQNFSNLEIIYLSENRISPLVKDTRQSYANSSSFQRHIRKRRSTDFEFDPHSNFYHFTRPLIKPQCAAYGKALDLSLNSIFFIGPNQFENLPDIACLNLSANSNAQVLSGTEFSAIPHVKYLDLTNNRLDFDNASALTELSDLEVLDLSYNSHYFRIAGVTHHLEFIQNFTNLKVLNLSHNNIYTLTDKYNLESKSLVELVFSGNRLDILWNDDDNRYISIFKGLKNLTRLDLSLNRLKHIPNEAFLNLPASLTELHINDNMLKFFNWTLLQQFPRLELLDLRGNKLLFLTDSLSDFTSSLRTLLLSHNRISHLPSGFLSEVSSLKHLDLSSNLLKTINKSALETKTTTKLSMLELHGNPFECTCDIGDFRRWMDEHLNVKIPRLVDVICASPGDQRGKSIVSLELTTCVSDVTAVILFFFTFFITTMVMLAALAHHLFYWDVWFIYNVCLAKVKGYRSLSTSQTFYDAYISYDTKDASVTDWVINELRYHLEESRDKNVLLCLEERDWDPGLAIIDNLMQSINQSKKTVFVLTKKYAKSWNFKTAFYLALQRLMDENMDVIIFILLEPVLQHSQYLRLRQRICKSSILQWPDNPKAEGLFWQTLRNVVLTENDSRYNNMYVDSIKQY
In short: as §1

Row | SMILES | IC50 (human TLR9) [nM] | IC50 (human TLR7) [nM] | IC50 (human TLR8) [nM]
1 | Cc1c(-c2[nH]c3sc(C4CCC(N5CCNC(=O)C5)CC4)nc3c2C(C)C)cn2ncnc2c1C (single isomer, unassigned) [Example 220, 4-(4-(5-(7,8-dimethyl-[1,2,4]triazolo[1,5-a]pyridin-6-yl)-6-isopropyl-4H-pyrrolo[3,2-d]thiazol-2-yl)cyclohexyl) piperazin-2-one] | > 50000 | 1.4 | 4.38
2 | Cc1c(-c2[nH]c3sc(C4CCC(N5CCNC(=O)C5)CC4)nc3c2C(C)C)cn2ncnc2c1C (single isomer, unassigned) [Example 221, 4-(4-(5-(7,8-dimethyl-[1,2,4]triazolo[1,5-a]pyridin-6-yl)-6-isopropyl-4H-pyrrolo[3,2-d]thiazol-2-yl)cyclohexyl) piperazin-2-one] | > 50000 | 3.08 | 33.3
3 | Cc1c(-c2[nH]c3sc(C4CCC(N(C)C(C)C)CC4)nc3c2C(C)C)cn2ncnc2c1C (single isomer, unassigned) [Example 222, 4-(5-(7,8-dimethyl-[1,2,4]triazolo[1,5-a]pyridin-6-yl)-6-isopropyl-4H-pyrrolo[3,2-d]thiazol-2-yl)-N-isopropyl-N-methylcyclohexan-1-amine] | 30400 | 0.75 | 1.94
4 | Cc1c(-c2[nH]c3sc(C4CCC(N(C)C(C)C)CC4)nc3c2C(C)C)cn2ncnc2c1C (single isomer, unassigned) [Example 223, 4-(5-(7,8-dimethyl-[1,2,4]triazolo[1,5-a]pyridin-6-yl)-6-isopropyl-4H-pyrrolo[3,2-d]thiazol-2-yl)-N-isopropyl-N-methylcyclohexan-1-amine] | 14300 | 8.65 | 10.3
5 | Cc1c(-c2[nH]c3sc(C4CCC(N5CC(O)C5)CC4)nc3c2C(C)C)cn2ncnc2c1C (single isomer, unassigned) [Example 224, 1-(4-(5-(7,8-dimethyl-[1,2,4]triazolo[1,5-a]pyridin-6-yl)-6-isopropyl-4H-pyrrolo[3,2-d]thiazol-2-yl)cyclohexyl)azetidin-3-ol] | 9030 | 0.56 | 0.63
6 | Cc1c(-c2[nH]c3sc(C4CCC(N5CC(O)C5)CC4)nc3c2C(C)C)cn2ncnc2c1C (single isomer, unassigned) [Example 225, 1-(4-(5-(7,8-dimethyl-[1,2,4]triazolo[1,5-a]pyridin-6-yl)-6-isopropyl-4H-pyrrolo[3,2-d]thiazol-2-yl)cyclohexyl)azetidin-3-ol] | 5490 | 2.56 | 3.94
7 | Cc1c(-c2[nH]c3sc(C4CCC(N5CC(F)C5)CC4)nc3c2C(C)C)cn2ncnc2c1C (single isomer, unassigned) [Example 226, 5-(7,8-dimethyl-[1,2,4]triazolo[1,5-a]pyridin-6-yl)-2-(4-(3-fluoroazetidin-1-yl)cyclohexyl)-6-isopropyl-4H-pyrrolo[3,2-d]thiazole] | 6780 | 0.35 | 0.41
8 | Cc1c(-c2[nH]c3sc(C4CCC(N5CC(F)C5)CC4)nc3c2C(C)C)cn2ncnc2c1C (single isomer, unassigned) [Example 227, 5-(7,8-dimethyl-[1,2,4]triazolo[1,5-a]pyridin-6-yl)-2-(4-(3-fluoroazetidin-1-yl)cyclohexyl)-6-isopropyl-4H-pyrrolo[3,2-d]thiazole] | 18200 | 4.43 | 11.4
9 | Cc1c(-c2[nH]c3sc(C4CCC(N(C)CC(C)C)CC4)nc3c2C(C)C)cn2ncnc2c1C (single isomer, unassigned) [Example 228, 4-(5-(7,8-dimethyl-[1,2,4]triazolo[1,5-a]pyridin-6-yl)-6-isopropyl-4H-pyrrolo[3,2-d]thiazol-2-yl)-N-isobutyl-N-methylcyclohexan-1-amine] | 8860 | 2.18 | 1.46
10 | Cc1c(-c2[nH]c3sc(C4CCC(N(C)CC(C)C)CC4)nc3c2C(C)C)cn2ncnc2c1C (single isomer, unassigned) [Example 229, 4-(5-(7,8-dimethyl-[1,2,4]triazolo[1,5-a]pyridin-6-yl)-6-isopropyl-4H-pyrrolo[3,2-d]thiazol-2-yl)-N-isobutyl-N-methylcyclohexan-1-amine] | 4960 | 7.1 | 3.71
11 | Cc1c(-c2[nH]c3sc(C4CCC(NC5CCS(=O)(=O)C5)CC4)nc3c2C(C)C)cn2ncnc2c1C (single isomer, unassigned) [Example 231, 3-((4-(5-(7,8-dimethyl-[1,2,4]triazolo[1,5-a]pyridin-6-yl)-6-isopropyl-4H-pyrrolo[3,2-d]thiazol-2-yl)cyclohexyl)amino)tetrahydrothiophene 1,1-dioxide] | 49500 | 6.32 | 1.19
